Measured values: PubChem BioAssay (NCI)
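96-well plates; 48 h exposure; 5 concentrations. Endpoints by linear interpolation between flanking doses. Not reached: highest tested concentration assigned. GI50 is the concentration that inhibits growth by half. TGI is the concentration that stops growth completely.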

How the values were obtained:
Assay in all cases: inhibition of tumour cell growth, NCI panel, 48 h
786-0 renal = system: 786-0 renal
A498 renal = system: A498 renal
ACHN renal = system: ACHN renal
BT-549 breast = system: BT-549 breast
CAKI-1 renal = system: CAKI-1 renal
CCRF-CEM leukemia = system: CCRF-CEM leukemia
COLO 205 colon = system: COLO 205 colon
DU-145 prostate = system: DU-145 prostate
EKVX NSCLC = system: EKVX NSCLC
HCC-2998 colon = system: HCC-2998 colon
HCT-116 colon = system: HCT-116 colon
HCT-15 colon = system: HCT-15 colon
HL-60(TB) leukemia = system: HL-60(TB) leukemia
HOP-62 NSCLC = system: HOP-62 NSCLC
HOP-92 NSCLC = system: HOP-92 NSCLC
HS 578T breast = system: HS 578T breast
HT29 colon = system: HT29 colon
IGROV1 ovarian = system: IGROV1 ovarian
K-562 leukemia = system: K-562 leukemia
KM12 colon = system: KM12 colon
LOX IMVI melanoma = system: LOX IMVI melanoma
M14 melanoma = system: M14 melanoma
MALME-3M melanoma = system: MALME-3M melanoma
MCF7 breast = system: MCF7 breast
MDA-MB-231 breast = system: MDA-MB-231 breast
MDA-MB-435 = system: MDA-MB-435
MDA-MB-468 breast = system: MDA-MB-468 breast
MOLT-4 leukemia = system: MOLT-4 leukemia
NCI-H226 lung = system: NCI-H226 lung
NCI-H23 lung = system: NCI-H23 lung
NCI-H460 lung = system: NCI-H460 lung
NCI-H522 lung = system: NCI-H522 lung
NCI/ADR-RES ovarian = system: NCI/ADR-RES ovarian
OVCAR-3 ovarian = system: OVCAR-3 ovarian
OVCAR-4 ovarian = system: OVCAR-4 ovarian
OVCAR-5 ovarian = system: OVCAR-5 ovarian
OVCAR-8 ovarian = system: OVCAR-8 ovarian
PC-3 prostate = system: PC-3 prostate
RPMI-8226 leukemia = system: RPMI-8226 leukemia
RXF 393 renal = system: RXF 393 renal
SF-268 CNS = system: SF-268 CNS
SF-295 CNS = system: SF-295 CNS
SF-539 CNS = system: SF-539 CNS
SK-MEL-2 melanoma = system: SK-MEL-2 melanoma
SK-MEL-28 melanoma = system: SK-MEL-28 melanoma
SK-MEL-5 melanoma = system: SK-MEL-5 melanoma
SK-OV-3 ovarian = system: SK-OV-3 ovarian
SN12C renal = system: SN12C renal
SNB-19 CNS = system: SNB-19 CNS
SNB-75 CNS = system: SNB-75 CNS
SR leukemia = system: SR leukemia
SW-620 colon = system: SW-620 colon
T-47D breast = system: T-47D breast
TK-10 renal = system: TK-10 renal
U251 CNS = system: U251 CNS
UACC-257 melanoma = system: UACC-257 melanoma
UACC-62 melanoma = system: UACC-62 melanoma
UO-31 renal = system: UO-31 renal

With `O=C(NN1C(=O)/C(=C/C=C/c2ccc([N+](=O)[O-])o2)SC1=S)c1ccc(Cl)cc1` the GI50 (786-0 renal) was 0.241 µM, the TGI (786-0 renal) was 0.55 µM and the GI50 (A498 renal) was 4.2 µM. It also gave a TGI (A498 renal) of 9.7 µM, a GI50 (ACHN renal) of 0.288 µM and a TGI (ACHN renal) of 0.78 µM. The GI50 (BT-549 breast) was 0.225 µM, the TGI (BT-549 breast) was 0.519 µM and the GI50 (CAKI-1 renal) was 0.346 µM. The TGI (CAKI-1 renal) was 1.14 µM, the GI50 (CCRF-CEM leukemia) was 0.316 µM and the TGI (CCRF-CEM leukemia) was 9.26 µM. The GI50 (COLO 205 colon) was 0.212 µM, the TGI (COLO 205 colon) was 0.428 µM and the GI50 (DU-145 prostate) was 0.614 µM. The TGI (DU-145 prostate) was 1.55 µM, the GI50 (EKVX NSCLC) was 0.285 µM and the TGI (EKVX NSCLC) was 0.889 µM. For the same compound, the GI50 (HCC-2998 colon) was 0.268 µM, the TGI (HCC-2998 colon) was 0.706 µM and the GI50 (HCT-116 colon) was 0.0848 µM. It also gave a TGI (HCT-116 colon) of 0.253 µM, a GI50 (HCT-15 colon) of 0.0647 µM and a TGI (HCT-15 colon) of 0.208 µM. For the same compound, the GI50 (HL-60(TB) leukemia) was 2.06 µM, the TGI (HL-60(TB) leukemia) was 11.3 µM and the GI50 (HOP-62 NSCLC) was 0.78 µM. The TGI (HOP-62 NSCLC) was 2.12 µM, the GI50 (HOP-92 NSCLC) was 0.299 µM and the TGI (HOP-92 NSCLC) was 0.734 µM. It also gave a GI50 (HS 578T breast) of 1.35 µM, a TGI (HS 578T breast) of 4.55 µM and a GI50 (HT29 colon) of 0.221 µM. It also gave a TGI (HT29 colon) of 0.475 µM, a GI50 (IGROV1 ovarian) of 0.596 µM and a TGI (IGROV1 ovarian) of 1.39 µM. It also gave a GI50 (K-562 leukemia) of 0.121 µM, a TGI (K-562 leukemia) of 8.28 µM and a GI50 (KM12 colon) of 0.473 µM. For the same compound, the TGI (KM12 colon) was 1.91 µM, the GI50 (LOX IMVI melanoma) was 0.219 µM and the TGI (LOX IMVI melanoma) was 0.496 µM. It also gave a GI50 (M14 melanoma) of 0.189 µM, a TGI (M14 melanoma) of 0.369 µM and a GI50 (MALME-3M melanoma) of 0.186 µM. It also gave a TGI (MALME-3M melanoma) of 0.347 µM, a GI50 (MCF7 breast) of 0.293 µM and a TGI (MCF7 breast) of 1.44 µM. The GI50 (MDA-MB-231 breast) was 0.18 µM, the TGI (MDA-MB-231 breast) was 0.341 µM and the GI50 (MDA-MB-435) was 0.203 µM. It also gave a TGI (MDA-MB-435) of 0.446 µM, a GI50 (MDA-MB-468 breast) of 1.48 µM and a TGI (MDA-MB-468 breast) of 3.09 µM. The GI50 (MOLT-4 leukemia) was 0.397 µM, the TGI (MOLT-4 leukemia) was 13.6 µM and the GI50 (NCI-H226 lung) was 0.247 µM. The TGI (NCI-H226 lung) was 0.601 µM, the GI50 (NCI-H23 lung) was 0.202 µM and the TGI (NCI-H23 lung) was 0.442 µM. It also gave a GI50 (NCI-H460 lung) of 0.252 µM, a TGI (NCI-H460 lung) of 0.648 µM and a GI50 (NCI-H522 lung) of 0.18 µM. The TGI (NCI-H522 lung) was 0.353 µM, the GI50 (NCI/ADR-RES ovarian) was 0.493 µM and the TGI (NCI/ADR-RES ovarian) was 2 µM. For the same compound, the GI50 (OVCAR-3 ovarian) was 0.268 µM, the TGI (OVCAR-3 ovarian) was 0.747 µM and the GI50 (OVCAR-4 ovarian) was 1.26 µM. For the same compound, the TGI (OVCAR-4 ovarian) was 2.79 µM, the GI50 (OVCAR-5 ovarian) was 0.734 µM and the TGI (OVCAR-5 ovarian) was 2 µM. For the same compound, the GI50 (OVCAR-8 ovarian) was 0.245 µM, the TGI (OVCAR-8 ovarian) was 0.774 µM and the GI50 (PC-3 prostate) was 0.863 µM. For the same compound, the TGI (PC-3 prostate) was 3.9 µM, the GI50 (RPMI-8226 leukemia) was 0.318 µM and the TGI (RPMI-8226 leukemia) was 2.18 µM. It also gave a GI50 (RXF 393 renal) of 0.239 µM, a TGI (RXF 393 renal) of 0.837 µM and a GI50 (SF-268 CNS) of 1.53 µM. The TGI (SF-268 CNS) was 4.11 µM, the GI50 (SF-295 CNS) was 1.74 µM and the TGI (SF-295 CNS) was 3.28 µM. For the same compound, the GI50 (SF-539 CNS) was 0.202 µM, the TGI (SF-539 CNS) was 0.401 µM and the GI50 (SK-MEL-2 melanoma) was 0.219 µM. It also gave a TGI (SK-MEL-2 melanoma) of 0.503 µM, a GI50 (SK-MEL-28 melanoma) of 0.356 µM and a TGI (SK-MEL-28 melanoma) of 1.1 µM. It also gave a GI50 (SK-MEL-5 melanoma) of 0.214 µM, a TGI (SK-MEL-5 melanoma) of 0.5 µM and a GI50 (SK-OV-3 ovarian) of 1.71 µM. It also gave a TGI (SK-OV-3 ovarian) of 3.18 µM, a GI50 (SN12C renal) of 0.172 µM and a TGI (SN12C renal) of 0.375 µM. For the same compound, the GI50 (SNB-19 CNS) was 1.27 µM, the TGI (SNB-19 CNS) was 2.54 µM and the GI50 (SNB-75 CNS) was 1.2 µM. It also gave a TGI (SNB-75 CNS) of 2.82 µM, a GI50 (SR leukemia) of 0.0454 µM and a TGI (SR leukemia) greater than 100 µM. For the same compound, the GI50 (SW-620 colon) was 0.143 µM, the TGI (SW-620 colon) was 0.31 µM and the GI50 (T-47D breast) was 1.64 µM. The TGI (T-47D breast) was 3.1 µM, the GI50 (TK-10 renal) was 1.47 µM and the TGI (TK-10 renal) was 2.92 µM. For the same compound, the GI50 (U251 CNS) was 0.306 µM, the TGI (U251 CNS) was 1.12 µM and the GI50 (UACC-257 melanoma) was 1.48 µM. The TGI (UACC-257 melanoma) was 3.22 µM, the GI50 (UACC-62 melanoma) was 0.223 µM and the TGI (UACC-62 melanoma) was 0.564 µM. It also gave a GI50 (UO-31 renal) of 0.671 µM and a TGI (UO-31 renal) of 1.97 µM.
